Laboratory results reported in patent publication US5302514A, “Maltooligoside derivative, reagent for determining α-amylase activity containing the same as effective ingredient and a process for determining the α-amylase activity using same” (Kikkoman Corporation, priority 1991, dated 1994).

How the values were obtained:
Assay type in all cases: biochemical
[1] = target: T1, amylase derived from human saliva (human S type α-amylase) (Homo sapiens, UniProt P0DUB6); test: Hydrolysis rate, S type α-amylase; details: relative to hydrolysis rate of 3 mM G5CNP defined as 10, substrate 7-9 times the Km
T1 sequence (P0DUB6 16-511): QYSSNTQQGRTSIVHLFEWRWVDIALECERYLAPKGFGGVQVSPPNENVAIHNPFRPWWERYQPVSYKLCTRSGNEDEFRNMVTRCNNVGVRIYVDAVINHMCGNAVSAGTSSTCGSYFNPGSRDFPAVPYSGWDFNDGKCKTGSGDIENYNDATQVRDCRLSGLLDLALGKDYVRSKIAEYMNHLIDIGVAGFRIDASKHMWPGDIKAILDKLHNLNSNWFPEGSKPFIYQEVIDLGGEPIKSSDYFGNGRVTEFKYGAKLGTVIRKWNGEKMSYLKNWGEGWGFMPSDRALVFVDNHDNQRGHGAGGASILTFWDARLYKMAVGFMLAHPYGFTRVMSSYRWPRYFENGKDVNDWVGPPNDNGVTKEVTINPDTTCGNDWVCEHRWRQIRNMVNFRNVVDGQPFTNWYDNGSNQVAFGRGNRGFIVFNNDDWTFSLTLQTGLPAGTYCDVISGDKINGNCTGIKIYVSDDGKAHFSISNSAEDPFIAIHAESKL
Experimental: The coupled enzyme solution was prepared in the same manner as in the step (2) of Example 5.
(§1) Commercially available human P type and S type α-amylase solutions having a concentration of ca. 500 IU/l were prepared in the same manner as in the step (3) of Example 5.
With 250 μl of the α-amylase solution prepared in (iii) was mixed 1.0 ml of the coupled enzyme. The mixture was heated at 37° C. for 1 minute, and 2.0 ml of the substrate solution was added with stirring to the mixture. The variation of absorbance at 400 nm was measured for 2 minutes after heating the mixture at 37° C. for 2 minutes. The hydrolysis rate of each substrate, namely the variable absorbance per unit time was expressed with the relative values to the hydrolysis rate of 3 mM G5CNP (the reference substrate) which is defined as 10.
(§2) S: amylase derived from human saliva.

[2] = target: T1, amylase derived from human saliva (human S type α-amylase); test: Patterns of action (hydrolyzed product by HPLC), S type α-amylase; details: 0.5 mM substrate, 37° C., 20 minutes
Experimental: as §1
To 1.0 ml of the substrate solution was added 100 μl of the α-amylase solution prepared in the paragraph (iii) of the aforementioned hydrolysis rate, and the mixture, after stirred sufficiently, was subjected to reaction at 37° C. for 20 minutes. The hydrolyzed product was determined quantitatively by the high performance liquid chromatography of the reaction mixture.
as §2

[3] = tested on: human α-amylase (P:S=1:1); test: α-Amylase hydrolysis (increase in absorbance at 400 nm with coupled enzymes); details: for Increase in absorbance for 2 minutes (corrected by the 0 IU/l of α-amylase activity): substrate solution 3.00 mM, 400 nm, 37° C., pH 7.0; for hydrolysis by α-amylase (in words): as understood from Tables 1 and 2
Experimental: Coupled enzyme solution was prepared by dissolving a commercially available α-glucosidase derived from yeast and a commercially available β-glucosidase derived from almond in a 50 mM phosphate buffer (pH=7.0) containing 40 mM NaCl and 2 mM MgCl2 to a concentration of 117 units/ml and 13 units/ml, respectively. As the commercially available α- and β-glucosidases, those available from Toyobo Co., Ltd. were used.
Standard α-amylase solutions were prepared by dissolving a commercially available human α-amylase (P:S=1:1) in purified water to a concentration of 0, 148, 284, 401 and 525 IU/l, respectively. As the commercially available human α-amylase, Calibzyme.AMY manufactured by International Reagents Corp. was employed. As for the activity of α-amylase, an amount of the enzyme which decomposes 1μ mol of (a commercially available) 2-chloro-4-nitrophenyl β-D-maltopentaoside at 37° C. for one minute was defined as 1 international unit (IU).
The substrate solution (a) was prepared by dissolving 2-chloro-4-nitorphenyl 6^5 -azido-6^5 -deoxy-β-D-maltopentaoside (referred to hereinafter as the substrate of the present invention) obtained in Example 3 in a 50 mM phosphate buffer (pH=7.0) containing 40 mM NaCl and 2 mM MgCl2 to a concentration of 3.00 mM.
The substrate solution (b) was prepared by dissolving 2-chloro-4-nitrophenyl 6^3 -azido-6^3 -deoxy-β-D-maltotrioside (referred to hereinafter as the reference substrate) obtained in the step (1) in a 50 mM phosphate buffer (pH=7.0) containing 40 mM NaCl and 2 mM MgCl2 to a concentration of 3.00 mM.
A coupled enzyme solution was prepared in the same manner as in the step (2) of Example 5.
α-amylase solutions were prepared in the same manner as in the step (3) of Example 5 by dissolving a commercially available human α-amylase (P:S=1:1) in purified water to a concentration of 0, 250 and 500 IU/l, respectively.
The coupled enzyme solution in an amount of 1.0 ml was added with stirring to 250 μl of the α-amylase solution, and the mixture was heated at 37° C. for one minute. Each of the substrate solution in an amount of 2.0 ml was added with stirring to the mixture, and the mixture was heated at 37° C. for 2 minutes before measuring the variation of the absorbance at 400 nm for 2 minutes.
2-chloro-4-nitrophenyl 5^5 -eno-4^5 -O-mesyl-β-D-maltopentaoside (referred to hereinafter as substrate of the present invention) obtained in Example 1 was dissolved in a 50 mM phosphate buffer (pH=7.0) containing 40 mM NaCl and 2 mM MgCl2 to a concentration of 3.00 mM.
2-chloro-4-nitrophenyl 5^3 -eno-4^3 -O-mesyl-β-D-maltotrioside(referred to hereinafter as reference substrate) obtained in the previous step (1) was dissolved in a 50 mM phosphate buffer (pH=7.0) containing 40 mM NaCl an 2 mM MgCl2 to a concentration of 3.00 mM.
α-amylase solutions were prepared in the same manner as in the step (5) of Example 7.
The variations of absorbance were measured in the same manner as in the step (6) of Example 7.

Row | Structure (SMILES) | Hydrolysis rate [1] | Patterns of action, hydrolyzed product G2CNP [2] | Patterns of action, hydrolyzed product G3CNP [2] | Patterns of action, hydrolyzed product G4CNP [2] | Patterns of action, hydrolyzed product GCNP [2] | Increase in absorbance for 2 minutes (corrected by the 0 IU/l of α-amylase activity) ([3]; Table 1, α-amylase activity 250 IU/l) | Increase in absorbance for 2 minutes (corrected by the 0 IU/l of α-amylase activity) ([3]; Table 1, α-amylase activity 500 IU/l) | hydrolysis by α-amylase (in words) [3] | Increase in absorbance for 2 minutes (corrected by the 0 IU/l of α-amylase activity) ([3]; Table 2, α-amylase activity 250 IU/l) | Increase in absorbance for 2 minutes (corrected by the 0 IU/l of α-amylase activity) ([3]; Table 2, α-amylase activity 500 IU/l)
1 | [N-]=[N+]=NC[C@H]1O[C@H](O[C@H]2[C@H](O)[C@@H](O)[C@@H](O[C@H]3[C@H](O)[C@@H](O)[C@@H](O[C@H]4[C@H](O)[C@@H](O)[C@@H](O[C@H]5[C@H](O)[C@@H](O)[C@H](Oc6ccc([N+](=O)[O-])cc6Cl)O[C@@H]5CO)O[C@@H]4CO)O[C@@H]3CO)O[C@@H]2CO)[C@H](O)[C@@H](O)[C@@H]1O [ADG5CNP, 2-chloro-4-nitrophenyl 6^5-azido-6^5-deoxy-β-D-maltopentaoside] | 10 | 100 mol % | 0 mol % | 0 mol % | 0 mol % | 0.058 | 0.118 | hydrolyzed satisfactorily |  | 
2 | C=C1O[C@H](O[C@H]2[C@H](O)[C@@H](O)[C@@H](O[C@H]3[C@H](O)[C@@H](O)[C@@H](O[C@H]4[C@H](O)[C@@H](O)[C@@H](O[C@H]5[C@H](O)[C@@H](O)[C@H](Oc6ccc([N+](=O)[O-])cc6Cl)O[C@@H]5CO)O[C@@H]4CO)O[C@@H]3CO)O[C@@H]2CO)[C@H](O)[C@@H](O)[C@@H]1OS(C)(=O)=O [EMG5CNP, 2-chloro-4-nitrophenyl 5^5-eno-4^5 -O-mesyl-β-D-maltopentaoside] | 10 | 97 mol % | 0 mol % | 0 mol % | 3 mol % |  |  | hydrolyzed extremely smoothly | 0.057 | 0.116
